Like-named read-outs stand apart in the source and are kept apart here.
Assays:
[1] = target: BTK^C481S (Homo sapiens (Human), UniProt Q06187, C481S); assay: BTK^C481S binding affinity (TR-FRET, LanthaScreen); settings: 5 h incubation
Method: (§1) BTK^C481S binding affinity of each compound tested was determined using a time-resolved fluorescence resonance energy transfer (TR-FRET) methodology. 5 nM Recombinant […] kinase, varying concentrations of inhibitor, 2 nM LanthaScreen™ Eu anti-His Antibody and 30 nM Kinase Tracer 236 was incubated in 1× LanthaScreen™ Kinase Buffer A for 5 h. Recombinant BTK^C481S kinase was purchased from SignalChem and all LanthaScreen™ components were purchased from Invitrogen. Measurements were performed in a reaction volume of 30 μL using half-area 96-well assay plates. The TR-FRET signal was read on a plate reader with an excitation wavelength of 340 nm and detection wavelengths of 615 and 665 nm. Binding affinity was determined for each compound by measuring TR-FRET signal at various concentrations of compound and plotting the relative fluorescence units against the inhibitor concentration to estimate the IC50 from log [Inhibitor] vs response using the Variable Slope model in Graphpad prism from Graphpad software (SanDiego, Calif.).

[2] = test system: OCI-Ly10 human DLBCL cells; assay: OCI-Ly10 anti-proliferative activity (Resazurin, 72 h); assay type: cell-based; settings: Homo sapiens, OCI-Ly10, 72 h, read-out: Proliferation OCI-Ly10-IC50
Method: Compounds were assayed for effects on the growth of OCI-Ly10 human DLBCL cells that are dependent on NFκB signalling. OCI-Ly10 cells were grown in suspension in T225 flasks, centrifuged and re-suspended in 2.5% FBS containing media. Cells were then plated at 7.5×10^3 cells per well in 96-well plates in varying concentrations of compound and incubated for 72 h at 37° C. An additional plate of cells to be used as the Day 0 read was seeded without compound addition, Resazurin was added to each well, incubated for 5 h and the fluorescence measured at 590 nm. After 72 h of compound treatment, Resazurin was added to each well of the compound treated plates, incubated for 5 h and the fluorescence measured at 590 nm. The IC50 was then calculated by subtracting the average Day 0 value from each well value from the treated plates, each treatment was then calculated as a percentage of the DMSO control and the percentages plotted against the inhibitor concentration to estimate the IC50 from log [Inhibitor] vs response using the Variable Slope model in Graphpad prism from Graphpad software (SanDiego, Calif.).

[3] = target: BTK^WT (Homo sapiens (Human), UniProt Q06187); assay: BTK^WT binding affinity (TR-FRET, LanthaScreen)
Method: as §1, with “BTK^WT binding” for “BTK^C481S binding”, “methodology. 2.5” for “methodology. 5”, “and 15” for “and 30”, “Recombinant BTK” for “Recombinant BTK^C481S”, “kinase” for “kinase was purchased from SignalChem”

[4] = target: EGFR (Homo sapiens (Human), UniProt P00533); assay: EGFR binding affinity (TR-FRET, LanthaScreen); settings: 5 h incubation
Method: EGFR binding affinity was determined using a time-resolved fluorescence resonance energy transfer (TR-FRET) methodology. 2.5 nM Recombinant EGFR, varying concentrations of inhibitor, 2 nM LanthaScreen™ Eu anti-GST Antibody and 3 nM Kinase Tracer 199 was incubated in 1× LanthaScreen™ Kinase Buffer A for 5 h. Recombinant EGFR and all LanthaScreen™ components were purchased from Invitrogen. Measurements were performed in a reaction volume of 30 μL using half-area 96-well assay plates. The TR-FRET signal was read on a plate reader with an excitation wavelength of 340 nm and detection wavelengths of 615 and 665 nm. Binding affinity was determined for each compound by measuring TR-FRET signal at various concentrations of compound and plotting the relative fluorescence units against the inhibitor concentration to estimate the IC50 from log [Inhibitor] vs response using the Variable Slope model in Graphpad prism from Graphpad software (SanDiego, Calif.).

[5] = TR-FRET binding, 5 h incubation, read-out: BTK^WT IC50
[6] = Table 6, numeric values, read-out: BTK Binding IC50

Chain of BTK^C481S (Q06187 whole entry C481S): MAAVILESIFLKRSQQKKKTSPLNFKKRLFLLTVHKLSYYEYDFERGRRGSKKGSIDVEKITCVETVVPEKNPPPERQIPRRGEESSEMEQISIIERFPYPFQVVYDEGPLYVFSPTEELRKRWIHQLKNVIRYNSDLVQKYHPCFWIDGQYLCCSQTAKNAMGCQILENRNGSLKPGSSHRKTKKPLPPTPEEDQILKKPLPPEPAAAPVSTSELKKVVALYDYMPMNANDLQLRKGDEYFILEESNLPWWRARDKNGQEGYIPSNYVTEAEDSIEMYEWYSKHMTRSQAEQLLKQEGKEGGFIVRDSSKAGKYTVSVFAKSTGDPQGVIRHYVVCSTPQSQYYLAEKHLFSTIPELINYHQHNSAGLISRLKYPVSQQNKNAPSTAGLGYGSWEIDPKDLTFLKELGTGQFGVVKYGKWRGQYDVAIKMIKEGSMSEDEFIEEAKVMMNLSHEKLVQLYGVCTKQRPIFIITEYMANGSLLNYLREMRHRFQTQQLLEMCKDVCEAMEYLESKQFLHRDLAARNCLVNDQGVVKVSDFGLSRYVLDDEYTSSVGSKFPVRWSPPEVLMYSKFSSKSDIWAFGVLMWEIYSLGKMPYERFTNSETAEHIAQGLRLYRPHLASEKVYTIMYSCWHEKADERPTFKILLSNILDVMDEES
Chain of EGFR (P00533 25-1210): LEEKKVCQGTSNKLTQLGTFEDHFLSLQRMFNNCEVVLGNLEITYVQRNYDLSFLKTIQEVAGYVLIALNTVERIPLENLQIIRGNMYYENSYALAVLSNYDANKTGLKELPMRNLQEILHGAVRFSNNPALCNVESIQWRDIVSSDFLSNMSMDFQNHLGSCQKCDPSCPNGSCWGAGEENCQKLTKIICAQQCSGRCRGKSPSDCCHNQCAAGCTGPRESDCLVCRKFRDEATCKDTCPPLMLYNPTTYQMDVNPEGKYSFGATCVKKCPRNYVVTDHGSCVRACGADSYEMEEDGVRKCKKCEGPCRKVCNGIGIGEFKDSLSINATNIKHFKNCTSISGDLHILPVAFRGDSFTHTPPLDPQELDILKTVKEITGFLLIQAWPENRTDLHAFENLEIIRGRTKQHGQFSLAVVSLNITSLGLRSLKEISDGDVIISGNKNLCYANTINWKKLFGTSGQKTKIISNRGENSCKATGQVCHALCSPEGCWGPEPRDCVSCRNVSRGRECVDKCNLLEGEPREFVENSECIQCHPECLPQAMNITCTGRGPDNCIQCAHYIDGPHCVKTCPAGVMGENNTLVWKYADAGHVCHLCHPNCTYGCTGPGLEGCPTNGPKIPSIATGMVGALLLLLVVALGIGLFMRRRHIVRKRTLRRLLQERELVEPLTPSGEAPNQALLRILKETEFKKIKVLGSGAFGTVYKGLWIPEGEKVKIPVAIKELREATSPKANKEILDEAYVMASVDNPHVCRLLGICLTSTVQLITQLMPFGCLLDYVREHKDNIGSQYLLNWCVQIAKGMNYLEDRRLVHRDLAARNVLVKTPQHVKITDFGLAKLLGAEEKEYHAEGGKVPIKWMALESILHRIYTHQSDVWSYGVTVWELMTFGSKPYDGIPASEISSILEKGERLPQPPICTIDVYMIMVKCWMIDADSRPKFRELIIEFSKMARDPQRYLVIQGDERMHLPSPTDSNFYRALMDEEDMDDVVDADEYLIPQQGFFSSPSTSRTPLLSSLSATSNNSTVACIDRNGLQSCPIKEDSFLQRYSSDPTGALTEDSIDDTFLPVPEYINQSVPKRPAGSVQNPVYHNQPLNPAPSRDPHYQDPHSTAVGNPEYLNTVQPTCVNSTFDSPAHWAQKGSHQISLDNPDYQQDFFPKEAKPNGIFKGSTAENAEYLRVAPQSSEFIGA
Chain of BTK^WT (Q06187 whole entry): as the sequence (Q06187 whole entry C481S) above, with S481C counted along it

| IC50 [1] | IC50 [2] | IC50 [3, 5] | IC50 [4] | IC50 [3, 6] | Structure (SMILES) |
| --- | --- | --- | --- | --- | --- |
| ≤ 0.01 µM | 0.1 to 1 µM | ≤ 0.01 µM | 1 to 10 µM |  | CCOc1ccccc1C(=O)NCc1ccc(-c2nn(C3CCCC3)c3ncnc(N)c23)cc1 [Example 7, N-[[4-(4-amino-1-cyclopentyl-pyrazolo[3,4-d]pyrimidin-3-yl)phenyl]methyl]-2-ethoxy-benzamide] |
| ≤ 0.01 µM | 1 to 10 µM | 0.01 to 0.1 µM | 1 to 10 µM |  | CC(C)Oc1ccccc1C(=O)NCc1ccc(-c2nn(C3CCCC3)c3ncnc(N)c23)cc1 [Example 8, N-[[4-(4-amino-1-cyclopentyl-pyrazolo[3,4-d]pyrimidin-3-yl)phenyl]methyl]-2-isopropoxy-benzamide] |
| ≤ 0.01 µM | 0.01 to 0.1 µM | ≤ 0.01 µM | 1 to 10 µM |  | COc1ccc(Cl)cc1C(=O)NCc1ccc(-c2nn(C3CCCC3)c3ncnc(N)c23)cc1 [Example 11, N-[[4-(4-amino-1-cyclopentyl-pyrazolo[3,4-d]pyrimidin-3-yl)phenyl]methyl]-5-chloro-2-methoxy-benzamide] |
| ≤ 0.01 µM | 0.01 to 0.1 µM | ≤ 0.01 µM | 1 to 10 µM |  | COc1ccc(C)cc1C(=O)NCc1ccc(-c2nn(C3CCCC3)c3ncnc(N)c23)cc1 [Example 12, N-[[4-(4-amino-1-cyclopentyl-pyrazolo[3,4-d]pyrimidin-3-yl)phenyl]methyl]-2-methoxy-5-methyl-benzamide] |
| ≤ 0.01 µM | 0.1 to 1 µM | ≤ 0.01 µM | 1 to 10 µM |  | COc1ccccc1C(=O)NCc1ccc(-c2nn(C3CCC(=O)C3)c3ncnc(N)c23)cc1 (stereo not drawn) [Example 21, N-[[4-[4-amino-1-(3-oxocyclopentyl)pyrazolo[3,4-d]pyrimidin-3-yl]phenyl]methyl]-2-methoxy-benzamide] |
| ≤ 0.01 µM | 0.01 to 0.1 µM | ≤ 0.01 µM | 0.1 to 1 µM |  | COc1ccccc1C(=O)NCc1ccc(-c2nn(C3CCC4(C3)OCCO4)c3ncnc(N)c23)cc1 (stereo not drawn) [Example 25, N-[[4-[4-amino-1-(1,4-dioxaspiro[4.4]nonan-8-yl)pyrazolo[3,4-d]pyrimidin-3-yl]phenyl]methyl]-2-methoxy-benzamide] |
| ≤ 0.01 µM | 0.1 to 1 µM | 0.01 to 0.1 µM | 0.1 to 1 µM |  | COc1ccccc1C(=O)NCc1ccc(-c2nn(C3CCC(=O)CC3)c3ncnc(N)c23)cc1 [Example 26, N-[[4-[4-amino-1-(4-oxocyclohexyl)pyrazolo[3,4-d]pyrimidin-3-yl]phenyl]methyl]-2-methoxy-benzamide] |
| 0.01 to 0.1 µM | 0.1 to 1 µM | 0.01 to 0.1 µM | 0.1 to 1 µM |  | COc1ccncc1C(=O)NCc1ccc(-c2nn(C3CCCC3)c3ncnc(N)c23)cc1 [Example 27, N-[[4-(4-amino-1-cyclopentyl-pyrazolo[3,4-d]pyrimidin-3-yl)phenyl]methyl]-4-methoxy-pyridine-3-carboxamide] |
| 0.01 to 0.1 µM | 0.1 to 1 µM | 0.01 to 0.1 µM | 0.1 to 1 µM |  | CNC1CCC(n2nc(-c3ccc(CNC(=O)c4ccccc4OC)cc3)c3c(N)ncnc32)CC1 (stereo not drawn) [Example 28, N-[[4-[4-amino-1-[4-(methylamino)cyclohexyl]pyrazolo[3,4-d]pyrimidin-3-yl]phenyl]methyl]-2-methoxy-benzamide] |
| ≤ 0.01 µM | 0.1 to 1 µM | ≤ 0.01 µM | 0.1 to 1 µM |  | COc1ccccc1C(=O)NCc1ccc(-c2nn(C3CCOCC3)c3ncnc(N)c23)cc1 [Example 29, N-[[4-(4-amino-1-tetrahydropyran-4-yl-pyrazolo[3,4-d]pyrimidin-3-yl)phenyl]methyl]-2-methoxy-benzamide] |
| ≤ 0.01 µM | 0.01 to 0.1 µM | ≤ 0.01 µM | 0.1 to 1 µM |  | COc1ccccc1C(=O)NCc1ccc(-c2nn(C3CCCC(=O)C3)c3ncnc(N)c23)cc1 (stereo not drawn) [Example 31, N-[[4-[4-amino-1-(3-oxocyclohexyl)pyrazolo[3,4-d]pyrimidin-3-yl]phenyl]methyl]-2-methoxy-benzamide] |
| ≤ 0.01 µM | 0.01 to 0.1 µM | ≤ 0.01 µM | 0.1 to 1 µM |  | CCOC(=O)C1CCC(n2nc(-c3ccc(CNC(=O)c4ccccc4OC)cc3)c3c(N)ncnc32)CC1 (stereo not drawn) [Example 32, ethyl 4-[4-amino-3-[4-[[(2-methoxybenzoyl)amino]methyl]phenyl]pyrazolo[3,4-d]pyrimidin-1-yl]cyclohexanecarboxylate] |
| ≤ 0.01 µM | 0.01 to 0.1 µM | ≤ 0.01 µM | 1 to 10 µM |  | COc1ccccc1C(=O)NCc1ccc(-c2nn(C3CCCOC3)c3ncnc(N)c23)cc1 (stereo not drawn) [Example 34, N-[[4-(4-amino-1-tetrahydropyran-3-yl-pyrazolo[3,4-d]pyrimidin-3-yl)phenyl]methyl]-2-methoxy-benzamide] |
| ≤ 0.01 µM | 0.01 to 0.1 µM | ≤ 0.01 µM | 0.01 to 0.1 µM |  | COc1ccccc1C(=O)NCc1ccc(-c2nn([C@H]3C=C[C@H](OC(C)=O)C3)c3ncnc(N)c23)cc1 [Example 35, [(1R,4R)-4-[4-amino-3-[4-[[(2-methoxybenzoyl)amino]methyl]phenyl]pyrazolo[3,4-d]pyrimidin-1-yl]cyclopent-2-en-1-yl] acetate] |
| ≤ 0.01 µM | 0.1 to 1 µM | ≤ 0.01 µM | 0.1 to 1 µM |  | COc1ccccc1C(=O)NCc1ccc(-c2nn([C@H]3C=C[C@H](O)C3)c3ncnc(N)c23)cc1 [Example 36, N-[[4-[4-amino-1-[(1R,4R)-4-hydroxycyclopent-2-en-1-yl]pyrazolo[3,4-d]pyrimidin-3-yl]phenyl]methyl]-2-methoxy-benzamide] |
| ≤ 0.01 µM | 0.1 to 1 µM | ≤ 0.01 µM | 0.1 to 1 µM | 0.0017 µM | COc1ccccc1C(=O)NCc1ccc(-c2nn(C3CCCC(O)C3)c3ncnc(N)c23)cc1 (stereo not drawn) [Example 37, N-[[4-[4-amino-1-(3-hydroxycyclohexyl)pyrazolo[3,4-d]pyrimidin-3-yl]phenyl]methyl]-2-methoxy-benzamide] |
| ≤ 0.01 µM | 0.01 to 0.1 µM | ≤ 0.01 µM | 0.01 to 0.1 µM |  | COc1ccccc1C(=O)NCc1ccc(-n2nc(C3CCCC3)c3ncnc(N)c32)cc1 [Example 38, N-[[4-(7-amino-3-cyclopentyl-pyrazolo[4,3-d]pyrimidin-1-yl)phenyl]methyl]-2-methoxy-benzamide] |
| ≤ 0.01 µM | 0.01 to 0.1 µM | ≤ 0.01 µM | 0.1 to 1 µM | 0.0014 µM | COc1ccccc1C(=O)NCc1ccc(-c2nn(C3CCC(OC)CC3)c3ncnc(N)c23)cc1 (stereo not drawn) [Example 39, N-[[4-[4-amino-1-(4-methoxycyclohexyl)pyrazolo[3,4-d]pyrimidin-3-yl]phenyl]methyl]-2-methoxy-benzamide] |
| ≤ 0.01 µM | 0.01 to 0.1 µM | ≤ 0.01 µM | 0.1 to 1 µM |  | COc1ccccc1C(=O)NCc1ccc(-c2nn(C3CC=CC3)c3ncnc(N)c23)cc1 [Example 40, N-[[4-(4-amino-1-cyclopent-3-en-1-yl-pyrazolo[3,4-d]pyrimidin-3-yl)phenyl]methyl]-2-methoxy-benzamide] |

From patent US10399989B2, “Pyrazolopyrimidine derivatives as BTK inhibitors for the treatment of cancer” (Loxo Oncology, Inc., priority 2016, dated 2019)
